The values below come from article PMC12304826, “Redirecting the Peptide Cleavage Causes Protease Inactivation” (Angewandte Chemie (International Ed. in English), 2025).

Like-named read-outs stand apart in the source and are kept apart here.

Experiment [1] deals with T1, human cathepsin B (Homo sapiens, UniProt P07858).
T1 construct: purchased Calbiochem, Darmstadt, Germany
Description: Cathepsin B inhibition assay (chromogenic substrate Cbz-Arg-Arg-pNA). The conditions noted are these: for remaining activity at 20 µM: 20 µM inhibitor, duplicate measurements, product formation after 60 min, read-out: r.a. (%), residual enzymatic activity of cathepsin B; for kinact/KI: 1 h; for kinac: calculated from kinac/Ki values and separately obtained Ki values. The class given is biochemical. How it is done:
To get a first insight into the interaction with human cathepsin B, the inhibition of the enzyme‐catalyzed cleavage of a chromogenic peptide substrate was examined. […] Active compounds were subjected to kinetic measurements at five different concentrations (Tables 1 and S1).
Figure 1 Cathepsin B‐catalyzed hydrolysis of 500 µM (= 0.45 K m) of Cbz‐Arg‐Arg‐p‐nitroanilide in the absence (black) or presence of increasing concentrations of carbamate 4 (from top to bottom: 0.4, 0.8, 1.2, 1.6, and 2.0 µM).
1. Enzyme Inhibition Assays and Kinetic Data of Inhibition of Cathepsins B, L, K and S General. Human cathepsins were assayed either fluorimetrically or spectrophotometrically as noted below. The 10 mM inhibitor solutions were prepared in DMSO. The final concentration of DMSO in all assays was 2%. Non-linear regressions were conducted with GraFit 5. Residual cathepsin activity at an inhibitor concentration of 20 µM was determined from duplicate measurements based on the product formation after 60 min. Concentration dependent measurements were performed in duplicate measurements with five different inhibitor concentrations when the residual cathepsin activity in the presence of 20 µM inhibitor was below 70% (cathepsin B) or below 50% (cathepsins cathepsins L, K, and S). Progress curves were monitored for 60 min. First-order rate constants, kobs, were determined by non-linear regression following the equation [P] = vi × (1 – exp(-kobs × t))/kobs + d, where [P] is the product concentration, vi is the initial product formation rate, kobs is the observed first-order rate constant, and d is the offset. Mean values of kobs were plotted versus corresponding inhibitor concentrations [I], and second-order rate constants of inactivation, kinac/Ki, were obtained by linear regression. The equation kobs/[I] = (kinac/Ki)/(1 + [S]/Km) was used, where [S] is the substrate concentration and Km is the Michaelis-Menten constant. Standard errors (SE) refer to the linear regression.
Cathepsin B inhibition assay.[1] Human isolated cathepsin B (Calbiochem, Darmstadt, Germany) was assayed spectrophotometrically on a Cary 50 or 100 Bio, Varian, at 405 nm. The reactions were followed at 37 °C. Assay buffer was 100 mM sodium phosphate buffer pH 6.0, 100 mM NaCl, 5 mM EDTA, 0.01% Brij 35. A stock solution of human cathepsin B of 1.81 mg/mL or 0.47 mg/mL in 20 mM sodium acetate buffer pH 5.0, 1 mM ethylenediaminetetraactic acid (EDTA) was diluted 1:500 with assay buffer containing 5 mM dithiothreitol (DTT) and incubated for 30 min at 37 °C. A 100 mM stock solution of the para-nitroaniline (pNA)-based chromogenic substrate Cbz-Arg-Arg-pNA was prepared in DMSO.
The final concentration of the substrate was 500 μM (= 0.45 Km). Into a cuvette containing 960 μL assay buffer, inhibitor solution and DMSO in a total volume of 15 μL, and 5 μL of the substrate solution were added and mixed. The reaction was initiated by adding 20 μL of the enzyme solution. […]

The target in experiment [2] is T1, human cathepsin B. Description: Cathepsin B reactivation experiment. The class given is biochemical. The conditions noted are these: 30 min incubation with 0.5 µM, spin-filter removal of inhibitor, 200 min. How it is done:
Figure S2. Reactivation experiment of human cathepsin B after incubation with the carbamate inhibitors 7 and 31. Cathepsin B (38 µg/mL) was incubated under assay conditions for 30 min with • DMSO, • 5 µM of compound 7, or • 0.5 µM of compound 31. After removal of assay buffer, DMSO and excessive inhibitor by spin-filter centrifugation, product formation was followed in the presence of Cbz-Arg-Arg-pNA as substrate for 200 min. A negative control (•) containing only substrate and no enzyme was used to measure spontaneous decay of the substrate.
(also on this page, place not known: time (min) 0 60 120 180 absorption 0 0.2 0.4 0.6)
(1 picture or pasted object on this page, not shown here)

[3] abbreviates: pH 6, five inhibitor concentrations, duplicates, 60 min progress curves, 500 µM Cbz-Arg-Arg-pNA, pH 6.0, 37 °C, read-out: k inac/K i ± SE, second-order rate constant of enzyme inactivation, cathepsin B.

As to `CC(C)CC(NC(=O)Oc1ccccc1)C(=O)NC(Cc1ccccc1)C(=O)O` (stereo not drawn) [Compound 1], the remaining activity at 20 µM at human cathepsin B [1] came to 23%. Further, at human cathepsin B [1] (setting [3]), the kinact/KI was determined as 157 ± 13 M⁻¹ s⁻¹.
As for `CC(C)C[C@H](NC(=O)Oc1ccc(Cl)cc1)C(=O)N[C@@H](Cc1ccccc1)C(=O)OC(C)(C)C` [Compound 2], the remaining activity at 20 µM at human cathepsin B [1] is 92%.
`COC(=O)C(Cc1ccccc1)NC(=O)C(CC(C)C)NC(=O)Oc1ccc(Cl)cc1` (stereo not drawn) [Compound 3]: the remaining activity at 20 µM at human cathepsin B [1] came to 97%.
With `CC(C)C[C@H](NC(=O)Oc1ccc(Cl)cc1)C(=O)N[C@@H](Cc1ccccc1)C(=O)O` [Compound 4], at human cathepsin B [1], the remaining activity at 20 µM is no more than 2%. At human cathepsin B [1] (setting [3]), the kinact/KI stood at 745 ± 5 M⁻¹ s⁻¹.
For the compound `CC(C)CC(CNC(=O)Oc1ccc(Cl)cc1)C(=O)N[C@H](Cc1ccccc1)C(=O)O` (stereo partly drawn) [Compound 5], the remaining activity at 20 µM on human cathepsin B [1] was 11%. Besides, the kinact/KI on human cathepsin B [1] (setting [3]) is 108 ± 5 M⁻¹ s⁻¹.
On to `O=C(NC(CC1CCCCC1)C(=O)NC(Cc1ccccc1)C(=O)O)Oc1ccc(Cl)cc1` (stereo not drawn) [Compound 7], for which, at human cathepsin B [1], the remaining activity at 20 µM is no more than 2% and the kinac is 0.0200 s⁻¹. For the same compound, on human cathepsin B [1] (setting [3]), the kinact/KI came to 2010 ± 110 M⁻¹ s⁻¹. Further, at human cathepsin B [1] (non-linear regression of initial rates vi versus inhibitor concentration, read-out: Ki ± SE), the Ki came out at 9.96 µM.
For `CC(C)C[C@H](NC(=O)Oc1ccc(Cl)cc1)C(=O)N1CCC[C@H]1C(=O)O` [Compound 8], at human cathepsin B [1], the remaining activity at 20 µM turned out to be 4%. Also, on human cathepsin B [1] (setting [3]), the kinact/KI worked out at 711 ± 40 M⁻¹ s⁻¹.
For `CC(C)CC(CNC(=O)Oc1ccc(Cl)cc1)C(=O)N1CCC[C@@H]1C(=O)O` (stereo partly drawn) [Compound 9] the same measures were 53% and 30.3 ± 4.1 M⁻¹ s⁻¹.
In the case of `CC(C)C[C@H](NC(=O)Oc1ccc(Cl)cc1)C(=O)N1CCCC[C@H]1C(=O)O` [Compound 10], the remaining activity at 20 µM on human cathepsin B [1] came to 5%. Besides, the kinact/KI at human cathepsin B [1] (setting [3]) turned out to be 933 ± 40 M⁻¹ s⁻¹.
Take `CC(C)CC(OC(=O)Nc1ccc(Cl)cc1)C(=O)N[C@@H](Cc1ccccc1)C(=O)O` (stereo partly drawn) [Compound 16]: on human cathepsin B [1], the remaining activity at 20 µM was found to be 91%.
For `CC(C)CC(OC(=O)Nc1ccc(Cl)cc1)C(=O)N1CCC[C@H]1C(=O)O` (stereo partly drawn) [Compound 17], the remaining activity at 20 µM at human cathepsin B [1] came to 68%. Besides, the kinact/KI on human cathepsin B [1] (five inhibitor concentrations, duplicates, 60 min progress curves, 500 µM Cbz-Arg-Arg-pNA, pH 6.0, 37 °C, read-out: k inac/K i ± SE, second-order rate constant of enzyme inactivation, cathepsin B) was determined as 10.6 ± 1.6 M⁻¹ s⁻¹.
In the case of `CC(C)C[C@H](NC(=O)Nc1ccc(Cl)cc1)C(=O)N[C@@H](Cc1ccccc1)C(=O)O` [Compound 18], the remaining activity at 20 µM at human cathepsin B [1] was 90%.
Turning to `CC(C)C[C@H](NC(=O)Nc1ccc(Cl)cc1)C(=O)N1CCC[C@H]1C(=O)O` [Compound 19], the remaining activity at 20 µM at human cathepsin B [1] stood at 95%.
On to `CC(C)C[C@H](NC(=O)Oc1ccc(Cl)c(NC(=O)Cc2ccccc2)c1)C(=O)N1CCC[C@H]1C(=O)O` [Compound 20], for which the remaining activity at 20 µM at human cathepsin B [1] is no more than 2%. Further, on human cathepsin B [1] (setting [3]), the kinact/KI was determined as 2860 ± 50 M⁻¹ s⁻¹.
Turning to `CC(C)C[C@H](NC(=O)Oc1ccc(-c2ccccc2)c(NC(=O)Cc2ccccc2)c1)C(=O)N1CCC[C@H]1C(=O)O` [Compound 21], the remaining activity at 20 µM at human cathepsin B [1] is no more than 2%. Also, the kinact/KI at human cathepsin B [1] (setting [3]) turned out to be 1340 ± 20 M⁻¹ s⁻¹.
Turning to `CC(C)CC(NC(=O)Oc1ccc(Cl)c(NC(=O)C(c2ccccc2)c2ccccc2)c1)C(=O)N1CCCC1C(=O)O` (stereo not drawn) [Compound 22], the remaining activity at 20 µM on human cathepsin B [1] is no more than 2%. On human cathepsin B [1] (setting [3]), the kinact/KI came out at 3830 ± 70 M⁻¹ s⁻¹.
Take `CC(C)C[C@H](NC(=O)Oc1cccc(Cl)c1)C(=O)N1CCC[C@H]1C(=O)O` [Compound 23]: the remaining activity at 20 µM at human cathepsin B [1] is no more than 2%. Moreover, the kinact/KI at human cathepsin B [1] (setting [3]) was determined as 2760 ± 50 M⁻¹ s⁻¹.
`CC(C)C[C@H](NC(=O)Oc1ccc(NC(=O)Cc2ccccc2)c(Cl)c1)C(=O)N1CCC[C@H]1C(=O)O` [Compound 24]: on human cathepsin B [1], the remaining activity at 20 µM is no more than 2%. Also, the kinact/KI at human cathepsin B [1] (setting [3]) is 6530 ± 310 M⁻¹ s⁻¹.
In the case of `CC(C)CC(NC(=O)Oc1ccc(NC(=O)c2ccc(-c3ccccc3)cc2)c(Cl)c1)C(=O)N1CCCC1C(=O)O` (stereo not drawn) [Compound 25], the remaining activity at 20 µM at human cathepsin B [1] is no more than 2%. Also, the kinact/KI on human cathepsin B [1] (setting [3]) is 3640 ± 60 M⁻¹ s⁻¹.
With `CC(C)C[C@H](NC(=O)Oc1ccc(NC(=O)N(Cc2ccccc2)Cc2ccccc2)c(Br)c1)C(=O)N1CCC[C@H]1C(=O)O` [Compound 26], at human cathepsin B [1] (pH 6, read-out: k inac/K i ± SE, second-order rate constant of enzyme inactivation, cathepsin B), the kinact/KI was determined as 2660 ± 80 M⁻¹ s⁻¹.
For the compound `CC(C)CC(NC(=O)Oc1ccc(NC(=O)C(c2ccccc2)c2ccccc2)c(Br)c1)C(=O)N1CCCC1C(=O)O` (stereo not drawn) [Compound 27], at human cathepsin B [1], the remaining activity at 20 µM was no more than 2%. In addition, the kinact/KI at human cathepsin B [1] (setting [3]) stood at 6000 ± 100 M⁻¹ s⁻¹.
Regarding `CC(C)CC(NC(=O)Oc1ccc(NC(=O)C(c2ccccc2)c2ccccc2)c(Cl)c1)C(=O)N1CCCC1C(=O)O` (stereo not drawn) [Compound 28], the remaining activity at 20 µM on human cathepsin B [1] was no more than 2%. The kinact/KI on human cathepsin B [1] (setting [3]) was 8180 ± 290 M⁻¹ s⁻¹.
For the compound `CC(C)CC(NC(=O)Oc1ccc(NC(=O)C(c2ccccc2)c2ccccc2)c(Cl)c1)C(=O)NC(Cc1ccccc1)C(=O)O` (stereo not drawn) [Compound 29], the remaining activity at 20 µM at human cathepsin B [1] was no more than 2%. The kinact/KI at human cathepsin B [1] (setting [3]) was found to be 11300 ± 600 M⁻¹ s⁻¹.
As to `O=C(NC(CC1CCCCC1)C(=O)NC(Cc1ccccc1)C(=O)O)Oc1ccc(NC(=O)C(c2ccccc2)c2ccccc2)c(Cl)c1` (stereo not drawn) [Compound 30], the remaining activity at 20 µM at human cathepsin B [1] is no more than 2%. The kinact/KI on human cathepsin B [1] (setting [3]) was greater than 10000 M⁻¹ s⁻¹. Moreover, the “k inac/K i ± SE, second-order rate constant of enzyme inactivation, cathepsin B” value on human cathepsin B [1] (five inhibitor concentrations, duplicates, 60 min progress curves, 500 µM Cbz-Arg-Arg-pNA, pH 6.0, 37 °C) is given as 13,800 M^−1s^−1.
`O=C(NC(CC1CCCCC1)C(=O)NC(Cc1ccccc1)C(=O)O)Oc1ccc(NC(=O)C(Cc2ccccc2)Cc2ccccc2)c(Cl)c1` (stereo not drawn) [Compound 31]: at human cathepsin B [2], the “reversibility of cathepsin B inhibition” value was “irreversible”. At human cathepsin B [1], the remaining activity at 20 µM is no more than 2% and the kinac was 0.0104 s⁻¹. In addition, the “fold lower K i value in comparison with 7” value on human cathepsin B [1] (31 versus 7) was “more than 20 fold”. The kinact/KI at human cathepsin B [1] (setting [3]) was 23600 ± 1900 M⁻¹ s⁻¹. Besides, at human cathepsin B [1] (non-covalent enzyme-inhibitor complex, read-out: K i value), the Ki worked out at 0.441 µM.
